From the supplement of paper PMC11368000 come the findings set out here.

The test system of one experiment is 11235 (donor line of iPSC-derived cardiomyocytes). In words: POD (EC10) for decrease in total cell number (cytotoxicity) vs vehicle; higher = less potent (higher point of departure). The following applies: exposure time: 90 min. The method, then:
(§1)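 Human iPSC-derived cardiomyocytes from 16 donors were exposed for 90 min at 37 °C to each PFAS at 0.1, 1, 10 and 100 µM in 0.5% DMSO, 384-well plates. Kinetic Ca2+ flux (FLIPR) and Hoechst nuclei counts were normalised to vehicle wells and fitted with a hierarchical Bayesian Hill model to give donor-specific PODs: EC05 for beat-rate increase or decrease and for decay-to-rise ratio increase (QT proxy), EC95 for peak-frequency loss (asystole), EC10 for total cell number loss. 0.03 µM is the lower bound.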
Compound `O=C(O)C=C(C(F)(F)F)C(F)(F)F` [3,3-Bis(trifluoromethyl)-2-propenoic_acid] returned a POD vs vehicle of over 100 µM.
`O=C(O)C=CC(F)(C(F)(F)F)C(F)(F)F` [3-(Perfluoroisopropyl)-2-propenoic_acid] came in with a POD vs vehicle of over 100 µM.
The compound `O=C(O)CCC(F)(F)C(F)(F)C(F)(F)F` [3:3 Fluorotelomer carboxylic acid] came in with a POD vs vehicle of over 100 µM.
Still for that read-out and setting: the value for `O=C(CC(=O)C(F)(F)C(F)(F)F)C(F)(F)F` [3H,3H-Perfluoro-2,4-hexanedione] was over 100 µM; that for `O=S(=O)(O)CCC(F)(F)C(F)(F)C(F)(F)C(F)(F)F` [4:2 Fluorotelomer sulfonic acid] was over 100 µM; that for `OCC(F)(F)C(F)(F)C(F)(F)F` [Heptafluorobutanol] was over 100 µM.
The same measure, in the same setting: the value for `OCC(F)(F)C(F)(F)C(F)(F)CO` [Hexafluoroamylene_glycol] was over 100 µM; that for `NC(=O)C(F)(F)C(F)(F)C(F)(F)C(F)(F)F` [Nonafluoropentanamide] was over 100 µM; that for `O=C(O)C(F)(F)OC(F)(F)C(F)(F)OC(F)(F)F` [Perfluoro-3,6-dioxaheptanoic_acid] was over 100 µM.
`O=C(O)C(F)(F)OC(F)(F)C(F)(F)OC(F)(F)C(=O)O` [Perfluoro-3,6-dioxaoctane-1,8-dioic_acid] had a POD vs vehicle of over 100 µM.
In turn, `O=C(O)C(F)(F)C(F)(F)C(F)(F)OC(F)(C(F)(F)F)C(F)(F)F` [Perfluoro-4-isopropoxybutanoic_acid] showed a POD vs vehicle of over 100 µM.
Still for that read-out and setting: the value for `O=S(=O)(O)C(F)(F)C(F)(F)C(F)(F)C(F)(F)F` [Perfluorobutanesulfonic_acid] was over 100 µM.
Same read-out and setting: for `O=C(O)C(F)(F)C(F)(F)C(F)(F)C(F)(F)C(F)(F)C(F)(F)C(F)(F)C(F)(F)F` [Perfluorononanoic_acid] the value was over 100 µM; for `O=S(=O)([O-])C(F)(F)C(F)(F)C(F)(F)C(F)(F)F.[K+]` [Potassium_perfluorobutanesulfonate], over 100 µM.

In another experiment the test system is 1368 (donor line of iPSC-derived cardiomyocytes). Described as above. The following applies: exposure time: 90 min. The method, then: as §1
For the compound `NC(=O)C(F)(F)C(F)(F)C(F)(F)C(F)F`, the POD vs vehicle is over 100 µM.
`OCC(O)CC(F)(F)C(F)(F)C(F)(F)C(F)(F)C(F)(F)C(F)(F)C(F)(F)C(F)(F)F` (stereo unspecified) [1-(Perfluorofluorooctyl)propane-2,3-diol]: the POD vs vehicle is over 100 µM.
Still for that read-out and setting: the value for `CC(O)C(F)(F)C(F)(F)F` (stereo unspecified) [1-Pentafluoroethylethanol] was over 100 µM.
The same measure, in the same setting: the value for `O=C(O)C(F)(F)C(F)(F)C(F)F` [2,2,3,3,4,4-Hexafluorobutanoic_acid] was over 100 µM; that for `NC(O)(C(F)(F)F)C(F)(F)F` [2-Aminohexafluoropropan-2-ol] was over 100 µM; that for `O=C(O)CCC(F)(F)C(F)(F)C(F)(F)C(F)(F)C(F)(F)F` [2H,2H,3H,3H-Perfluorooctanoic_acid] was over 100 µM.
The same measure, in the same setting: the value for `O=C(O)C=C(C(F)(F)F)C(F)(F)F` [3,3-Bis(trifluoromethyl)-2-propenoic_acid] was over 100 µM; that for `O=C(O)C=CC(F)(C(F)(F)F)C(F)(F)F` [3-(Perfluoroisopropyl)-2-propenoic_acid] was over 100 µM; that for `O=C(O)CCC(F)(F)C(F)(F)C(F)(F)F` [3:3 Fluorotelomer carboxylic acid] was over 100 µM.
The compound `O=C(CC(=O)C(F)(F)C(F)(F)F)C(F)(F)F` [3H,3H-Perfluoro-2,4-hexanedione] registered a POD vs vehicle of over 100 µM.
On the same count and under the same terms, the value for `O=S(=O)(O)CCC(F)(F)C(F)(F)C(F)(F)C(F)(F)F` [4:2 Fluorotelomer sulfonic acid] was over 100 µM; that for `OCC(F)(F)C(F)(F)C(F)(F)F` [Heptafluorobutanol] was over 100 µM.
`OCC(F)(F)C(F)(F)C(F)(F)CO` [Hexafluoroamylene_glycol] gave a POD vs vehicle of over 100 µM.
Same read-out and setting: for `NC(=O)C(F)(F)C(F)(F)C(F)(F)C(F)(F)F` [Nonafluoropentanamide] the value was over 100 µM.
In turn, `O=C(O)C(F)(F)OC(F)(F)C(F)(F)OC(F)(F)F` [Perfluoro-3,6-dioxaheptanoic_acid] yielded a POD vs vehicle of over 100 µM.
The same measure, in the same setting: for `O=C(O)C(F)(F)OC(F)(F)C(F)(F)OC(F)(F)C(=O)O` [Perfluoro-3,6-dioxaoctane-1,8-dioic_acid] the value was over 100 µM; for `O=C(O)C(F)(F)C(F)(F)C(F)(F)OC(F)(C(F)(F)F)C(F)(F)F` [Perfluoro-4-isopropoxybutanoic_acid], over 100 µM; for `O=S(=O)(O)C(F)(F)C(F)(F)C(F)(F)C(F)(F)F` [Perfluorobutanesulfonic_acid], over 100 µM.
With `O=C(O)C(F)(F)C(F)(F)C(F)(F)C(F)(F)C(F)(F)C(F)(F)C(F)(F)C(F)(F)F` [Perfluorononanoic_acid], the POD vs vehicle is over 100 µM.
The same measure, in the same setting: the value for `O=S(=O)([O-])C(F)(F)C(F)(F)C(F)(F)C(F)(F)F.[K+]` [Potassium_perfluorobutanesulfonate] was over 100 µM.

The next experiment has as its system 1118 (donor line of iPSC-derived cardiomyocytes). The description is as above. The following applies: exposure time: 90 min. The method, then: as §1
Consider `NC(=O)C(F)(F)C(F)(F)C(F)(F)C(F)F`, for which the POD vs vehicle is over 100 µM.
The compound `OCC(O)CC(F)(F)C(F)(F)C(F)(F)C(F)(F)C(F)(F)C(F)(F)C(F)(F)C(F)(F)F` (stereo unspecified) [1-(Perfluorofluorooctyl)propane-2,3-diol] displayed a POD vs vehicle of over 100 µM.
As for `CC(O)C(F)(F)C(F)(F)F` (stereo unspecified) [1-Pentafluoroethylethanol], the POD vs vehicle is over 100 µM.
Same read-out and setting: for `O=C(O)C(F)(F)C(F)(F)C(F)F` [2,2,3,3,4,4-Hexafluorobutanoic_acid] the value was over 100 µM; for `NC(O)(C(F)(F)F)C(F)(F)F` [2-Aminohexafluoropropan-2-ol], over 100 µM; for `O=C(O)CCC(F)(F)C(F)(F)C(F)(F)C(F)(F)C(F)(F)F` [2H,2H,3H,3H-Perfluorooctanoic_acid], over 100 µM.
For `O=C(O)C=C(C(F)(F)F)C(F)(F)F` [3,3-Bis(trifluoromethyl)-2-propenoic_acid], the POD vs vehicle was over 100 µM.
The same measure, in the same setting: for `O=C(O)C=CC(F)(C(F)(F)F)C(F)(F)F` [3-(Perfluoroisopropyl)-2-propenoic_acid] the value was over 100 µM.
Same read-out and setting: the value for `O=C(O)CCC(F)(F)C(F)(F)C(F)(F)F` [3:3 Fluorotelomer carboxylic acid] was over 100 µM; that for `O=C(CC(=O)C(F)(F)C(F)(F)F)C(F)(F)F` [3H,3H-Perfluoro-2,4-hexanedione] was 25.1 µM.
`O=S(=O)(O)CCC(F)(F)C(F)(F)C(F)(F)C(F)(F)F` [4:2 Fluorotelomer sulfonic acid] registered a POD vs vehicle of over 100 µM.
Still for that read-out and setting: the value for `OCC(F)(F)C(F)(F)C(F)(F)F` [Heptafluorobutanol] was over 100 µM.
